These results are taken from patent publication US7498292B2, “Combinatorial libraries of autoinducer analogs, autoinducer agonists and antagonists, and methods of use thereof” (The Research Foundation of State University of New York, priority 2002, dated 2009).

“Also recorded” adds a separate entry of the source.

For series [1], the target named is T1, LasR (Pseudomonas aeruginosa, UniProt P25084).
T1 construct: endogenous in cells; host or cells: P. aeruginosa PAO-JP2 (lasI, rhlI) harboring plasI-LVAgfp
In words: lasI-gfp reporter agonist assay, PAO-JP2 (plasI-LVAgfp). The format is cell-based, P. aeruginosa. The conditions noted are these: PAO-JP2 (plasI-LVAgfp), compounds made in solution phase, increasing concentrations (1, 100, 400 μM). From the text: Since this strain lacks the ability to produce natural AIs due to disruption of both AI synthase genes, activation of LasR relies on the addition of exogenous AI1. Expression of gfp (encoding green fluorescent protein) is under control of the LasR-AI1 inducible lasI promoter, allowing rapid screening for LasR agonists by measuring the level of GFP expression in their presence.
(§1) P. aeruginosa strain PAO-JP2 (lasI, rhlI) (Rahme et al., Science 268:1899-1902 (1995), which is hereby incorporated by reference in its entirety) harboring plasI-LVAgfp (Pearson et al., Proc. Natl Acad. Sci. USA 91:197-201 (1994), which is hereby incorporated by reference in its entirety) was grown at 37° C. in LB with 300 μg/ml carbenicillin. For agonist assays, an overnight culture was diluted to an OD600 of 0.1 and transferred to wells of a 96-well plate on which test compounds had previously been added and dried. The final concentration of each analog tested was roughly 400 μM, although this is an overestimate due to purity issues. Cells were then incubated for 6 hours at 37° C. with vigorous shaking. GFP expression was detected with a Molecular Imager (BioRad) (488 nm excitation and 695 nm bandpass filter) and quantified with ImageQuant software. The OD600 of cultures was determined to normalize GFP expression to cell density.
(§2) Reporter strains were grown overnight in LB plus 300 μg/ml carbenicillin at 37° C. and diluted to an OD600 of 0.1. Following an incubation of 1 hour, 200 μl of cell culture was added to individual wells of a 96 well plate containing appropriate amount of test compound(s). Plates were incubated for 6 hours and then scanned for fluorescence emission with a Molecular Imager (488 nm excitation and 695 nm bandpass filter). Fluorescence was quantified with ImageQuant software.

Another series deals with P. aeruginosa. In words: cell growth in the reporter assay. The format is cell-based. Particulars: concentrations up to 400 μM. Here is the method:
Based on the above hypothesis, a competition assay of 2 and 3 against AI1, using strain PAO-JP2 (plasI-LVAgfp), was performed. […] It should be noted that this inhibition experiment was performed with competition against 1 μM AI1, a concentration typically produced by wild type P. aeruginosa (Pearson et al., Proc. Natl Acad. Sci. USA 92:1490-1494 (1995), which is hereby incorporated by reference in its entirety). […] It should also be noted that cell growth was not affected by the addition of 2 or 3 at concentrations up to 400 μM. Thus, it appears that compounds 2 and 3 act as specific inhibitors of QS controlled promoters. Compound 6 was also tested for its ability to compete against AI2, but no inhibition of the rhlI-gfp reporter gene was seen.
For orientation: Reporter assays use an easily measured gene product as a stand-in for the process of interest.

Series [2] has as its target T1, LasR. In words: lasI-gfp reporter antagonist (competition against AI1) assay, PAO-JP2 (plasI-LVAgfp). The format is cell-based, P. aeruginosa. Particulars: 100-fold excess concentration over AI1 (1 μM AI1). Here is the method:
as §1
The methods were the same as described in Example 2 (GFP Reporter Assay), except that 1 μM AI1 was added to each well in combination with the library compound. The fluorescence/OD600 of each compound competing against AI1 was reported relative to the fluorescence/OD600 of the positive control of AI1 alone, which was set to 1. When strain PAO-JP2 (prhlI-LVAgfp) was used, the positive control was 1 μM AI1 and 10 μM AI2. Eight compounds that inhibited reporter gene expression by greater than 50% were identified (see, e.g., FIG. 6).
as §2

A further series deals with pyocyanin. In words: pyocyanin assay, wild type strain PAO1. The format is cell-based, P. aeruginosa PAO1. The conditions noted are these: wild type PAO1, no AIs added. The method, then:
For the pyocyanin assay, cells were grown overnight in LB then washed in fresh media and diluted to an OD600 of 0.05. This culture was grown for 3-4 hours to mid-log phase (OD600 of 0.3-0.5), then diluted to an OD600 of 0.05, and aliquoted to test tubes containing an appropriate amount of test compound(s). Following 18 hours of growth, pyocyanin was extracted from filtered culture supernatants and quantified using standard methods (Essar et al., J. Bacteriol. 172:884-900 (1990), which is hereby incorporated by reference in its entirety).

Series [3] concerns PAO-JP2 (pTdK-GFP) biofilm. In words: static biofilm assay, PAO-JP2 (pTdK-GFP). The conditions noted are these: PAO-JP2 (pTdK-GFP) with exogenous AIs, 24-hour static assay. The format is cell-based, P. aeruginosa. Here is the method: Compound 3 was tested for its effect on biofilm development in a 24-hour assay that looks at the early stages of biofilm formation. […] Cultures were grown at 37° C. with shaking for 30 minutes, and then allowed to sit at 37° C. for an additional 23.5 hours. Coverslips were then rinsed and placed on slides for visualization using an MRC1024 Laser Scanning Microscope (BioRad) with a Nikon Fluor-60X oil emersion objective lens (NA=1.4), 488 nm Argon Laser and OG515 filter.

T1 sequence (P25084 whole entry): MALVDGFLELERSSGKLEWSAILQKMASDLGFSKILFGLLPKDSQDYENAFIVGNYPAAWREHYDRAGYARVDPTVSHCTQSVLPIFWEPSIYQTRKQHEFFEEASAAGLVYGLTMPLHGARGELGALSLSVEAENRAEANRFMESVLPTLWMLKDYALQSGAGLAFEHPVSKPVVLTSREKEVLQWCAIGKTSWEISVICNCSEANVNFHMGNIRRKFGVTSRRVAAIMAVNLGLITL

For the compound `CCCCCCCCCC(=O)CC(=O)NC1CCCCC1=O` (racemic) [Compound 3, N-(2-oxocyclohexyl)-3-oxododecanamide], the “agonist activity (induction of lasI-gfp reporter)” value on LasR [1] is “nearly unable to induce the reporter; also recorded: no agonist activity”. Moreover, in the series on P. aeruginosa, the “effect on cell growth” value was “not affected”. The “inhibition of GFP expression (lasI-gfp)” value at LasR [2] came out at 35%. Besides, in the series on pyocyanin, the “effect on pyocyanin production” value is given as “very similar inhibitory effect”. In addition, the “effect on biofilm formation” value in series [3] is “completely inhibited”.
